Measurements published in patent US5554653A, “Inhibitors of HIV protease useful for the treatment of AIDS” (Eli Lilly and Company, priority 1992, dated 1996).

Target: T1, HIV-1 protease (Human immunodeficiency virus type 1 group M subtype B, UniProt P04585)
T1 construct: Purified HIV-1 protease was obtained as described above; made in house; host or cells: E. coli K12 L507/pHP10D (NRRL B-18560)
Test: biochemical
Type: biochemical
Conditions: for IC50: read-out: Fluorescence Assay IC50 (converted)
Experimental: C. Preparation of Protease Fraction
A culture of E. coli K12 L507/pHP10D was grown to mid-log phase at 32° C. in LB media containing 12.5 μg/ml tetracycline. The cultivation temperature was quickly elevated to 40° C. to induce gene expression, and the cells were allowed to grow for 2.5 hours at this temperature before the culture was quickly chilled on ice. The cells were centrifuged and the cell pellet was resuspended in 20 mL 50 mmol MES buffer (pH 6.0) containing 1 mmol EDTA, 1 mmol DTT, 1 mmol PMSF and 10% glycerol ("Buffer A"). Cells were lysed by sonication using a Fischer Model 300 Dismembrator and a microtip probe. Following centrifugation at 27,000×g, the supernatant was diluted to a total volume of 60 mL with Buffer A and loaded onto a 2.0×19 cm QAE-Sepharose column (1 mL/min, 4° C.), that had been equilibrated in Buffer A. The column was washed isocratically for 180 min and then eluted with a gradient eluent of 0-1.0M sodium chloride in Buffer A over 120 min. Enzymatic activity was measured by HPLC using the synthetic peptide SQNYPIV as described in Margolin et al., Biochem. Biophys. Res. Commun., 167, 554-560 (1990); the production of the p1 peptide (SQNY) was measured.
The active fractions were combined, made 1.2M in ammonium sulfate, and applied to a 2.0×18 cm hexyl agarose column that had been equilibrated in Buffer A containing 1.2M ammonium sulfate. The sample was loaded at a flow rate of 1 mL/min at 4° C., washed with the equilibration buffer for 240 min (1 mL/min) and then eluted using a reverse linear gradient of 1.2-0M ammonium sulfate in Buffer A for 120 min at the same flow rate. The column was then washed isocratically in Buffer A for 120 min.
The active fractions were combined, concentrated to 10 mL using an Amicon stirred cell with a YM-10 membrane and then applied to a MonoS cation exchange column (1.0×10 cm) that had been equilibrated in Buffer A. The sample was loaded at a flow rate of 1 mL/min at 25° C. After washing isocratically for 30 min, the protease was eluted using a linear gradient of 0-0.45M sodium chloride in Buffer A over 40 min. The column was washed isocratically in Buffer A containing 0.45M sodium chloride for 30 min.
The active fractions were combined and concentrated to 200 μL using an Amicon stirred cell and a YM-10 membrane and then the protease was applied to a Superose 6 size exclusion column equilibrated in Buffer A containing 0.1M sodium chloride.
The purified peptide was labeled with a fluorescent marker at the C-terminal end for use in the Pandex assay. N^α -Biotin-[…]OH SEQ ID NO:3. (1.206 g, 0.936 mmol) was dissolved in 100 mL of 0.1M sodium borate, pH 9.5. Then, a solution of 3 g (7.7 mmol) of fluorescein isothiocyanate in 15 mL dimethyl sulfoxide was added to the reaction mixture in 10 equal portions over two hours. The resulting mixture was allowed to react for one hour after the final addition. The solution was adjusted to pH 3 using 5N hydrochloric acid, resulting in the formation of a precipitate which was removed by centrifugation.
E. Fluorescence HIV-1 Protease Inhibitor Assay
The following buffers and solutions are used in the Fluorescence HIV-1 Protease Inhibitor Assay:
MES-ALB Buffer: 0.05M 4-morpholineethane
Avidin Coated 0.1% solution of Fluoricon
Beads Solution: Avidin Assay Particles
(Avidin conjugated to solid
polystyrene beads, 0.6-0.8
microns in diameter in TBSA
27 IU/mL of purified HIV-1
protease in MES-ALB buffer
(1 IU equals the amount of
enzyme required to hydrolyze
1 μmole of substrate per
To each well of a round bottom, 96-well plate is added 20 μL of the Enzyme Solution followed by 10 μL of the compound to be evaluated in a 20% aqueous dimethylsulfoxide solution. Purified HIV-1 protease was obtained as described above.

| Compound | IC50 [nM] | IC5 (read-out: Fluorescence Assay IC5) [µg/mL] |
| --- | --- | --- |
| CC(=O)N[C@H](CSc1ccccc1)C(=O)N[C@@H](Cc1ccccc1)[C@H](O)Cc1ccccc1C(=O)NC(C)(C)C (relative stereo) [Example 20A, [2R(2R*,3S*,6S*)]-N-t-Butyl-2-[2-hydroxy-3-phenylmethyl-4-aza-5-oxo-6-N(ethanoyl)amino-7-phenylthio]heptyl benzamide] | 130 | – |
| CC(=O)N[C@H](CC(=O)OCc1ccccc1)C(=O)N[C@@H](Cc1ccccc1)[C@H](O)Cc1ccccc1C(=O)NC(C)(C)C [Example 1C, [2R-(2R*, 3S*, 6R*)1-N-t-Butyl-2-[2-hydroxy-3-phenylmethyl-4-aza-5-oxo-6-N(ethanoyl)amino-7-benzyloxycarbonyl]heptylbenzamide] | 56.1 | – |
| CC(=O)N[C@H](CC(=O)NCc1ccccn1)C(=O)N[C@@H](Cc1ccccc1)[C@H](O)Cc1ccccc1C(=O)NC(C)(C)C [Example 2, [2R-(2R*, 3S*, 6R*)]-N-t-Butyl-2-[2-hydroxy-3-phenylmethyl-4-aza-5-oxo-6-N(ethanoyl)amino-8-oxo-9-aza-10-pyrid-2-yl]decyl benzamide] | 451 | – |
| CC(=O)N[C@H](CC(=O)Nc1cnc2ccccc2c1)C(=O)N[C@@H](Cc1ccccc1)[C@H](O)Cc1ccccc1C(=O)NC(C)(C)C [Example 3, [2R-(2R*, 3S*, 6R*)]-N-t-butyl-2-[2-hydroxy-3-phenylmethyl-4-aza-5-oxo-6-N(ethanoyl)amine-8-oxo-8-N (quinolin-3-yl)amine]octyl benzamide] | 548 | – |
| CC(=O)N[C@H](CC(=O)NCc1ccccc1)C(=O)N[C@@H](Cc1ccccc1)[C@H](O)Cc1ccccc1C(=O)NC(C)(C)C [Example 4, [2R-(2R*, 3S*, 6R *]-N-t-butyl-2-[2-hydroxy-3-phenylmethyl-4-aza-5-oxo-6-N (ethanoyl)amino-8-oxo-9-aza-10-phenyl]decylbenzamide] | 341 | – |
| CN(C)S(=O)(=O)N[C@H](CC(=O)OCc1ccccc1)C(=O)N[C@@H](Cc1ccccc1)[C@H](O)Cc1ccccc1C(=O)NC(C)(C)C [Example 5, [2R-(2R*, 3S *, 6R*)]-N-t-butyl-2-[2-hydroxy-3-phenylmethyl-4-aza-5-oxo-6-N(dimethylaminosulfonyl)amino-7-benzyloxycarbonyl]heptyl benzamide] | 8.58 | – |
| CCC(=O)N[C@H](CC(=O)OCc1ccccc1)C(=O)N[C@@H](Cc1ccccc1)[C@H](O)Cc1ccccc1C(=O)NC(C)(C)C [Example 6, [2R-(2R*,3S*,6R*)]-N-t-butyl-2-[2-hydroxy-3-phenylmethyl-4-aza-5-oxo-6-N(propanoyl)amino-7-benzyloxycarbonyl]heptyl benzamide] | 26.6 | – |
| CCCC(=O)N[C@H](CC(=O)OCc1ccccc1)C(=O)N[C@@H](Cc1ccccc1)[C@H](O)Cc1ccccc1C(=O)NC(C)(C)C [Example 7, [2R-(2R*, 3S *, 6R*)]-N-t-butyl-2-[2-hydroxy-3-phenylmethyl-4-aza-5-oxo-6-N(butanoyl)amino-7-benzyloxycarbonyl]heptyl benzamide] | 115 | – |
| CC(C)(C)NC(=O)c1ccccc1C[C@@H](O)[C@H](Cc1ccccc1)NC(=O)[C@@H](CC(=O)OCc1ccccc1)NS(C)(=O)=O [Example 8A, [2R-(2R*,3S*, 6R*)]-N-t-butyl-2-[2-hydroxy-3-phenylmethyl-4-aza-5-oxo-6-N(methylsulfonyl)amino-7-benzyloxycarbonyl]heptyl benzamide] | 3.69 | – |
| CC(C)(C)NC(=O)c1ccccc1C[C@@H](O)[C@H](Cc1ccccc1)NC(=O)[C@@H](CC(=O)Nc1ccc2ccccc2n1)NS(C)(=O)=O [Example 9, [2R-(2R*, 3S*, 6R*)]-N-t-butyl-2-[2-hydroxy-3-phenylmethyl-4-aza-5-oxo-6-N-(methylsulphonyl)amino-8-oxo-8-N (quinolin-2-yl)amino]octyl benzamide] | 13.6 | – |
| CC(C)(C)NC(=O)c1ccccc1C[C@@H](O)[C@H](Cc1ccccc1)NC(=O)[C@@H](CC(=O)NCc1ccccc1)NS(C)(=O)=O [Example 10, [2R-(2R*, 3S*, 6R*)]-N-t-butyl-2-[2-hydroxy-3-phenylmethyl-4-aza-5-oxo-6-N(methylsulfonyl)amino-8-oxo-8-N(benzyl)amino]octyl benzamide] | 4.34 | – |
| CC(C)(C)NC(=O)c1ccccc1C[C@@H](O)[C@H](Cc1ccccc1)NC(=O)[C@@H](CC(=O)NCc1ccc2ccccc2n1)NS(C)(=O)=O [Example 11, [2R-(2R*, 3S*, 6R)]-N-t-butyl-2-[2-hydroxy-3-phenylmethyl-4-aza-5-oxo-6-N(methylsulfonyl)amino-8-oxo-9-aza-10-quinolin-2-yl]decyl benzamide] | 2.52 | – |
| CC(C)(C)NC(=O)c1ccccc1C[C@@H](O)[C@H](Cc1ccccc1)NC(=O)[C@@H](CC(=O)OCc1ccccc1)NC(N)=O [Example 12, [2R-(2R*, 3S*, 6R*)]-N-t-butyl-2-[2-hydroxy-3-phenylmethyl-4-aza-5-oxo-6-N(carbamoyl)amino-7-benzyloxycarbonyl]heptyl benzamide] | 28.9 | – |
| CC(C)(C)NC(=O)c1ccccc1C[C@@H](O)[C@H](Cc1ccccc1)NC(=O)[C@H](N)COCc1ccccc1 [Example 13B, [2R-(2R*,3S*,6R*)]-N-t-Butyl-2-[2-hydroxy-3-phenylmethyl-4-aza-5-oxo-6-amino-7-benzyloxy]heptyl benzamide] | – | 1 |
| CC(=O)N[C@H](COCc1ccccc1)C(=O)N[C@@H](Cc1ccccc1)[C@H](O)Cc1ccccc1C(=O)NC(C)(C)C [Example 13C, [2R-(2R*, 3S*, 6R*)]-N-t-Butyl-2-[2-hydroxy-3-phenylmethyl-4-aza-5-oxo-6-N(ethanoyl)amino-7-benzyloxy]heptyl benzamide] | 230 | – |
| CC(C)(C)NC(=O)c1ccccc1C[C@@H](O)[C@H](Cc1ccccc1)NC(=O)[C@@H](COCc1ccccc1)NS(C)(=O)=O [Example 14, [2R-(2R*, 3S*, 6R*)]-N-t-Butyl-2-[2-hydroxy-3-phenylmethyl-4-aza-5-oxo-6-N (methylsulfonyl)amino-7-benzyloxy]heptyl benzamide] | 43.6 | – |
| CC(C)(C)NC(=O)c1ccccc1C[C@@H](O)[C@H](Cc1ccccc1)NC(=O)[C@@H](CSc1ccc2ccccc2c1)NC(=O)OC(C)(C)C [Example 15A, [2R-(2R*,3S*,6S*)]-N-t-Butyl-2-[2-hydroxy-3-phenylmethyl-4-aza-5-oxo-6-N(t-butoxycarbonyl)amino-7-naphth-2-ylthio]heptyl benzamide] | > 1490 | – |
| CC(C)(C)NC(=O)c1ccccc1C[C@@H](O)[C@H](Cc1ccccc1)NC(=O)[C@H](N)CSc1ccc2ccccc2c1 [Example 15B, [2R-(2R*,3S*,6S*)]-N-t-Butyl-2-[2-hydroxy-3-phenylmethyl-4-aza-5-oxo-6-amino-7-naphth-2-ylthio]heptyl benzamide] | 223 | – |
| CC(=O)N[C@H](CSc1ccc2ccccc2c1)C(=O)N[C@@H](Cc1ccccc1)[C@H](O)Cc1ccccc1C(=O)NC(C)(C)C [Example 16A, [2R-(2R*, 3S*, 6S*)]-N-t-Butyl-2-[2-hydroxy-3-phenylmethyl-4-aza-5-oxo-6-N (ethanoyl)amino-7-naphth-2-ylthio]heptyl benzamide] | 10.6 | – |
| CC(=O)N[C@H](CS(=O)(=O)c1ccc2ccccc2c1)C(=O)N[C@@H](Cc1ccccc1)[C@H](O)Cc1ccccc1C(=O)NC(C)(C)C [Example 16B, [2R-(2R*,3S*,6S*)]-N-t-Butyl-2-[2-hydroxy-3-phenylmethyl-4-aza-5-oxo-6-N(ethanoyl)amino-7-naphth-2-ylsulfonyl]heptyl benzamide] | 0.186 | – |
